test system: MIN6; assay: Induction of glucose-stimulated insulin secretion in mouse MIN6 cells after 2 hrs by ELISA; type: functional, cell-based; details: MIN6, 2 h

| Compound | EC50 |
| --- | --- |
| CCCCO[C@@H]1[C@]2(CC)C=CCN3CC[C@@]4(c5ccc(OC)cc5N(C)[C@H]4[C@@]1(O)C(=O)OC)[C@@H]32 | > 100 µM |
| CCC(=O)O[C@@H]1[C@]2(CC)CCCN3CC[C@@]4(c5ccc(OC)cc5N(C)[C@H]4[C@@]1(O)C(=O)OC)[C@@H]32 | 38.5 µM |
| CC[C@]12C=CCN3CC[C@@]4(c5ccc(OC)cc5N(C)[C@H]4[C@@](O)(C(=O)OC)[C@@H]1OC)[C@@H]32 | > 100 µM |
| CC[C@]12C=CCN3CC[C@@]4(c5ccc(OC)cc5N(C)[C@H]4[C@@](O)(COC(=O)C(C)C)[C@@H]1OC(C)=O)[C@@H]32 | > 100 µM |
| CCCOC[C@@]1(O)[C@H](OC(C)=O)[C@]2(CC)C=CCN3CC[C@@]4(c5ccc(OC)cc5N(C)[C@@H]14)[C@@H]32 | 41.5 µM |
| CCO[C@@H]1[C@]2(CC)C=CCN3CC[C@@]4(c5ccc(OC)cc5N(C)[C@H]4[C@@]1(O)C(=O)OC)[C@@H]32 | 62.2 µM |
| CCCCOC[C@@]1(O)[C@H](OC(C)=O)[C@]2(CC)C=CCN3CC[C@@]4(c5ccc(OC)cc5N(C)[C@@H]14)[C@@H]32 | > 100 µM |
| CCC(=O)OC[C@@]1(O)[C@H](OC(C)=O)[C@]2(CC)C=CCN3CC[C@@]4(c5ccc(OC)cc5N(C)[C@@H]14)[C@@H]32 | 51 µM |
| CC[C@]12C=CCN3CC[C@@]4(c5ccc(OC)cc5N(C)[C@H]4[C@@](O)(C(=O)OC)[C@@H]1OC(=O)c1ccccc1)[C@@H]32 | 62.2 µM |
| CC[C@]12C=CCN3CC[C@@]4(c5ccc(OC)cc5N(C)[C@H]4[C@@](O)(C(=O)OC)[C@@H]1OC(=O)C1CCCCC1)[C@@H]32 | 80.5 µM |
| CC[C@]12C=CCN3CC[C@@]4(c5ccc(OC)cc5N(C)[C@H]4[C@@](O)(C(=O)OC)[C@@H]1OC(C)=O)[C@@H]32 | 50.2 µM |
| CCCO[C@@H]1[C@]2(CC)C=CCN3CC[C@@]4(c5ccc(OC)cc5N(C)[C@H]4[C@@]1(O)C(=O)OC)[C@@H]32 | 64.3 µM |
| CC[C@]12C=CCN3CC[C@@]4(c5ccc(OC)cc5N(C)[C@H]4[C@@](O)(C(=O)OC)[C@@H]1O)[C@@H]32 | > 100 µM |
| CC[C@]12C=CCN3CC[C@@]4(c5ccc(OC)cc5N(C)[C@H]4[C@@](O)(COC)[C@@H]1OC(C)=O)[C@@H]32 | 41 µM |
| CCC(=O)O[C@@H]1[C@]2(CC)C=CCN3CC[C@@]4(c5ccc(OC)cc5N(C)[C@H]4[C@@]1(O)C(=O)OC)[C@@H]32 | 32.6 µM |

Now those with a lower EC50, led by results:

| EC50 | Compound |
| --- | --- |
| 21 µM | CC[C@]12C=CCN3CC[C@@]4(c5ccc(OC)cc5N(C)[C@H]4[C@@](O)(CNC(=O)C(C)(C)C)[C@@H]1OC(C)=O)[C@@H]32 |
| 19.3 µM | CC[C@]12C=CCN3CC[C@@]4(c5ccc(OC)cc5N(C)[C@H]4[C@@](O)(CNC(C)=O)[C@@H]1OC(C)=O)[C@@H]32 |
| 18.5 µM | CCC(=O)NC[C@@]1(O)[C@H](OC(=O)C(C)C)[C@]2(CC)C=CCN3CC[C@@]4(c5ccc(OC)cc5N(C)[C@@H]14)[C@@H]32 |
| 14.2 µM | CCOC[C@@]1(O)[C@H](OC(=O)C(C)C)[C@]2(CC)C=CCN3CC[C@@]4(c5ccc(OC)cc5N(C)[C@@H]14)[C@@H]32 |
| 14.2 µM | CC[C@]12CCCN3CC[C@@]4(c5ccc(OC)cc5N(C)[C@H]4[C@@](O)(C(=O)OC)[C@@H]1OC(=O)C(C)C)[C@@H]32 |
| 12.7 µM | CCC(=O)NC[C@@]1(O)[C@H](OC(C)=O)[C@]2(CC)C=CCN3CC[C@@]4(c5ccc(OC)cc5N(C)[C@@H]14)[C@@H]32 |
| 11 µM | CCOC[C@@]1(O)[C@H](OC(C)=O)[C@]2(CC)C=CCN3CC[C@@]4(c5ccc(OC)cc5N(C)[C@@H]14)[C@@H]32 |
| 10.4 µM | CC[C@]12C=CCN3CC[C@@]4(c5ccc(OC)cc5N(C)[C@H]4[C@@](O)(C(=O)OC)[C@@H]1OC(=O)C(C)C)[C@@H]32 |

From ChEMBL document CHEMBL3994643, “Synthesis and glucose-stimulate insulin secretion (GSIS) evaluation of vindoline derivatives” (Bioorg Med Chem Lett, 2017)
